This is an account of results in patent US8497278B2, “Imidazo[1,2-a]pyridine compounds” (priority 2008, dated 2013).

The test system of experiment [1] is central benzodiazepine receptors. Put plainly: Central benzodiazepine receptor binding (test of Speth et al.). Particulars: 1000 nM of the compound. In a few lines:
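Radioligand binding by the Speth et al. method. Specific binding is total minus nonspecific binding, the latter measured with excess unlabelled ligand. Compounds screened at 1.0E-09, 1.0E-07 and 1.0E-05 M in single determination; values given as percent inhibition at 1000 nM compound.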

The next experiment deals with 129SVEV mice. As to the kind of experiment: Stress-Induced Hyperthermia (SIH) test. The class given is in vivo. Particulars: mouse, 60 min before test. As for the experimental part: Stress-Induced Hyperthermia (SIH) protocol: The stress-induced hyperthermia (SIH) test is based on the principle that animal's have a natural hyperthermic response to stress. The test involves taking two measures of rectal temperature in the same animal within a 10 minute interval. The two sequential rectal temperature measurements reveal the animal's basal temperature (T1) and 10 minutes later, an enhanced body temperature (T2) due to the stress of the first rectal temperature. The difference T2-T1 (delta T) is the SIH response. When anxiolytic drugs are administered prior to recording temperature, they reduce the stress response.
Adult male 129SVEV mice (6 weeks old) from Taconic Laboratories (Germantown, N.Y.) were used in these studies. Upon receipt, mice were assigned unique identification numbers (tail marked) and were group housed in OptiMICE ventilated racks. All animals remained group housed during the remainder of the study unless indicated otherwise. All mice were acclimated to the colony room for at least two weeks prior to testing and were subsequently tested at 8 weeks of age. During the period of acclimation, mice were examined on a regular basis, handled, and weighed to assure adequate healtH, D and suitability. Mice were maintained on a 12/12 light/dark cycle with the light on at 7:00 a.m. The room temperature was maintained between 20 and 23° C. with a relative humidity maintained between 30% and 70%. Chow and water were provided ad libitum for the duration of the study. Animals were not disturbed between test days.
On the day prior to testing, the mice were brought to the experimental room one hour before scheduled lights out and singly housed overnight with food and water ad libitum. On the morning of the experiment, mice were orally dosed via gavage with vehicle, CDP (10 mg/kg) or compounds of the present invention (3, 10 or 30 mg/kg) and placed back in the cages. One hour after oral gavage, each animal was removed from the holding cage and held in a supine position and rectal temperature was measured. The rectal probe was attached to a PhysiTemp digital thermometer (Fisher Scientific) which provides temperature readings at 0.1° C. accuracy. The probe remained inside the animal for approximately 5 seconds or until body temperature reached stability. This temperature was recorded as the baseline rectal temperature (T1). The animal was immediately placed back to the holding cage and after a 10-min interval the 2nd rectal temperature (T2) was taken using the same procedure as in measuring T1. Before each insertion, the rectal probe was cleaned with an alcohol pad and lubricated with sterile K-Y jelly.
Chlordiazepoxide (10 mg/kg) was used as the positive control. Compounds of the present invention, vehicle (45% hydroxypropyl beta-cyclodextrin) and chlordiazepoxide were administered orally to all groups (n=10 […] per group) 60 minutes prior to behavioral testing. All data were analyzed using an analysis of variance (ANOVA) followed by Fisher's PLSD post hoc test. An effect was considered significance if p<0.05. Statistical outliers above or below 2 standard deviations from the mean in any of the temperature measures were removed from the final analysis.

Consider `Clc1ccc(-c2nc3cccnn3c2Cn2cncn2)cc1` [Compound 32, 3-((1H-1,2,4-triazol-1-yl)methyl)-2-(4-chlorophenyl)imidazo[1,2-b]pyridazine], for which the “% Inhibition at 1000 nM for CBZD” value in experiment [1] is recorded as “++ (percentage of inhibition of central BZD site binding is greater than 80% in the presence of 1000 nM of the compound)”. Moreover, the “Change in Temperature (T2 − T1) Mean ± S.E.M.” value (shortened to “Change in Temperature”) with 129SVEV mice (3 mg/kg PO) amounted to 0.26 ± 0.04 °C; in the experiment with 129SVEV mice (10 mg/kg PO), 0.28 ± 0.10 °C; with 129SVEV mice (30 mg/kg PO), 0.37 ± 0.06 °C.

Regarding `NC(=O)c1ncn(Cc2c(-c3ccc(Cl)cc3)nc3ccccn23)n1` [Compound 72, 1-((2-(4-chlorophenyl)imidazo[1,2-a]pyridin-3-yl)methyl)-1H-1,2,4-triazole-3-carboxamide], the “% Inhibition at 1000 nM for CBZD” value in experiment [1] is given as “++ (percentage of inhibition of central BZD site binding is greater than 80% in the presence of 1000 nM of the compound)”. Further, the “Change in Temperature” value in the experiment on 129SVEV mice (3 mg/kg PO) is 0.21 ± 0.11 °C; in the experiment with 129SVEV mice (10 mg/kg PO), 0.32 ± 0.05 °C; with 129SVEV mice (30 mg/kg PO), 0.44 ± 0.10 °C.

On to `CNC(=O)c1nccn1Cc1c(-c2ccc(Cl)cc2)nc2ccccn12` [Compound 77, 1-((2-(4-chlorophenyl)H-imidazo[1,2-a]pyridin-3-yl)methyl)-N-methyl-1H-imidazole-2-carboxamide], for which the “% Inhibition at 1000 nM for CBZD” value in experiment [1] is on record as “++ (percentage of inhibition of central BZD site binding is greater than 80% in the presence of 1000 nM of the compound)”. Further, the “Change in Temperature” value was 0.37 ± 0.15 °C in the experiment on 129SVEV mice (3 mg/kg PO), 0.55 ± 0.11 °C in the experiment with 129SVEV mice (10 mg/kg PO) and 0.55 ± 0.12 °C with 129SVEV mice (30 mg/kg PO).

As to `Cn1ncnc1Cc1c(-c2ccc(F)cc2)nc2ccc(F)cn12` [Compound 200, 6-fluoro-2-(4-fluorophenyl)-3-((1-methyl-1H-1,2,4-triazol-5-yl)methyl)imidazo[1,2-a]pyridine], the “% Inhibition at 1000 nM for CBZD” value in experiment [1] is listed as “++ (percentage of inhibition of central BZD site binding is greater than 80% in the presence of 1000 nM of the compound)”. Besides, the “Change in Temperature” value in the experiment on 129SVEV mice (3 mg/kg PO) is −0.13 ± 0.11 °C; in the experiment on 129SVEV mice (10 mg/kg PO), −0.50 ± 0.15 °C; with 129SVEV mice (30 mg/kg PO), −0.66 ± 0.13 °C.

On to `Clc1ccc(-c2nc3ccccn3c2Cc2ncn[nH]2)cc1` [Compound 211, 3-((1H-1,2,4-triazol-5-yl)methyl)-2-(4-chlorophenyl)imidazo[1,2-a]pyridine], for which the “Change in Temperature” value in the experiment with 129SVEV mice (3 mg/kg PO) turned out to be 0.37 ± 0.08 °C; with 129SVEV mice (10 mg/kg PO) it was 0.33 ± 0.09 °C; in the experiment with 129SVEV mice (30 mg/kg PO) it was 0.37 ± 0.09 °C.
